Assay results reported in patent EP0068617A1, “Derivatives of clavulanic acid, a process for their preparation and their use” (BEECHAM GROUP PLC, priority 1981, dated 1983).

Assays:
Assay in all cases: MIC of amoxycillin in combination with the compound (synergy)
Type in all cases: cell-based
Details in all cases: amoxycillin alone
Kleb. aerogenes E70 = system: Kleb. aerogenes E70
Staph. aureus Russell = system: Staph. aureus Russell
Escherichia coli JT39 = system: Escherichia coli JT39

SMILES: CC1(C)S[C@@H]2[C@H](NC(=O)[C@H](N)c3ccc(O)cc3)C(=O)N2[C@H]1C(=O)O [Amoxycillin]
- MIC µg/ml amoxycillin (Kleb. aerogenes E70): 1000 µg/mL
- MIC µg/ml amoxycillin (Staph. aureus Russell): 500 µg/mL
- MIC µg/ml amoxycillin (Escherichia coli JT39): 2000 µg/mL
